Where a SMILES comes first, the peptide text is derived from it.
assay: Motilin immunoreactivity concentration in plasma, half-life after intravenous administration (Example 8); conditions: male, SD, rat, in vivo, iv, 10 nmol/kg
Experimental: The experiment was carried out using rats into which polyethylene tube (PE-50 manufactured by Clay Adams) was inserted into thigh artery under an anesthetized condition with Nembutal. As to a test system, male SD strain rats (Nippon Charles River) of 7 weeks age were used where one group comprised 3 rats. Human motilin or a derivative thereof in a dose of 10 nmol/kg was administered into tail vein of the rat and the blood before the administration and until 60 minutes after the administration was periodically collected by a polyethylene tube inserted into the thigh artery. To the collected blood were added EDTA (manufactured by Dojin Laboratories) and aprotinin (manufactured by Bayer) as a stabilizer and an anti-coagulant, respectively and the plasma was separated therefrom by centrifugal separation. Motilin immunoreactivity concentration in plasma was measured by a competitive radioimmunoassay (RIA) (FIG. 8). At that time, a rabbit polyclonal antibody (#870623) which specifically recognizes the amino acid numbers 1 to 12 of native motilin shown by SEQ ID No: 102 was used as an antibody and, as a labeled compound, ^125I-[Tyr^7] human motilin was used.

Row | half-life | SMILES
1 | 5.47 min | CC[C@H](C)[C@H](NC(=O)[C@@H]1CCCN1C(=O)[C@@H](NC(=O)[C@@H](N)Cc1ccccc1)C(C)C)C(=O)N[C@@H](Cc1ccccc1)C(=O)N[C@H](C(=O)N[C@@H](Cc1ccc(O)cc1)C(=O)NCC(=O)N[C@@H](CCC(=O)O)C(=O)N[C@@H](CC(C)C)C(=O)N[C@@H](CCC(N)=O)C(=O)N[C@@H](CCCNC(=N)N)C(=O)N[C@H](C(=O)N[C@@H](CCC(N)=O)C(=O)N[C@@H](CCC(N)=O)C(=O)N[C@@H](CCCNC(=N)N)C(=O)N[C@@H](CCCCN)C(=O)N[C@@H](CC(N)=O)C(=O)N[C@@H](CO)C(=O)N[C@@H](CCCCN)C(=O)N[C@@H](CCCCN)C(=O)N1CCC[C@H]1C(=O)N1CCC[C@H]1C(=O)N[C@@H](C)C(=O)N[C@@H](CCCCN)C(=O)N[C@@H](CC(C)C)C(=O)N[C@@H](CCC(N)=O)C(=O)N1CCC[C@H]1C(=O)N[C@@H](CCCNC(=N)N)C(=O)O)C(C)C)[C@@H](C)O [Chimeric motilin (T)(MG-17E/N)] (H-FVPIFTYGELQRVQQRKNSKKPPAKLQPR-OH; N-terminus and C-terminus assumed)
2 | 5.66 min | CC[C@H](C)[C@H](NC(=O)[C@@H]1CCCN1C(=O)[C@@H](NC(=O)[C@@H](N)Cc1ccccc1)C(C)C)C(=O)N[C@@H](Cc1ccccc1)C(=O)N[C@H](C(=O)N[C@@H](Cc1ccc(O)cc1)C(=O)NCC(=O)N[C@@H](CCC(=O)O)C(=O)N[C@@H](CC(C)C)C(=O)N[C@@H](CCC(N)=O)C(=O)N[C@@H](CCCNC(=N)N)C(=O)N[C@H](C(=O)N[C@@H](CCC(N)=O)C(=O)N[C@@H](CCC(N)=O)C(=O)N[C@@H](CCCNC(=N)N)C(=O)N[C@@H](CCCCN)C(=O)N[C@@H](CCC(N)=O)C(=O)N[C@@H](CO)C(=O)N[C@@H](CCCCN)C(=O)N[C@@H](CCCCN)C(=O)N1CCC[C@H]1C(=O)N1CCC[C@H]1C(=O)N[C@@H](C)C(=O)N[C@@H](CCCCN)C(=O)N[C@@H](CC(C)C)C(=O)N[C@@H](CCC(N)=O)C(=O)N1CCC[C@H]1C(=O)N[C@@H](CCCNC(=N)N)C(=O)O)C(C)C)[C@@H](C)O [Chimeric motilin (U)(MG-17E/Q)] (H-FVPIFTYGELQRVQQRKQSKKPPAKLQPR-OH; N-terminus and C-terminus assumed)
3 | 8.94 min | CC[C@H](C)[C@H](NC(=O)[C@@H]1CCCN1C(=O)[C@@H](NC(=O)[C@@H](N)Cc1ccccc1)C(C)C)C(=O)N[C@@H](Cc1ccccc1)C(=O)N[C@H](C(=O)N[C@@H](Cc1ccc(O)cc1)C(=O)NCC(=O)N[C@@H](CCC(=O)O)C(=O)N[C@@H](CC(C)C)C(=O)N[C@@H](CCC(N)=O)C(=O)N[C@@H](CCCNC(=N)N)C(=O)N[C@H](C(=O)N[C@@H](CCC(N)=O)C(=O)N[C@@H](CCC(N)=O)C(=O)N[C@@H](CCCNC(=N)N)C(=O)N[C@@H](CCCCN)C(=O)N[C@@H](CCC(=O)O)C(=O)N[C@@H](CO)C(=O)N[C@@H](CCCCN)C(=O)N[C@@H](CCCCN)C(=O)N[C@@H](C)C(=O)N[C@@H](CCCCN)C(=O)N[C@@H](CC(C)C)C(=O)N[C@@H](C)C(=O)N[C@@H](C)C(=O)N[C@@H](CC(C)C)C(=O)N[C@@H](CCCCN)C(=O)N[C@@H](C)C(=O)O)C(C)C)[C@@H](C)O [Chimeric motilin (V) (MG-dPPH1)] (H-FVPIFTYGELQRVQQRKESKKAKLAALKA-OH; N-terminus and C-terminus assumed)
